Test results: publication PMC9531272, “Xanthine oxidase inhibitory study of eight structurally diverse phenolic compounds” (Frontiers in Nutrition, 2022)
Read-outs that look alike come from different tables or passages of the source.

Assays:
XO = conditions: cited from earlier work; for IC50: read-out: IC50 against XO
Xanthine oxidase (XO) [1] = target: T1, Xanthine oxidase (XO) (Bos taurus, UniProt P80457); assay: Determination of inhibition type (Line-weaver Burk plot); assay type: biochemical; conditions: Line-weaver Burk plot analysis toward XO
T1 construct: purchased Sigma-Aldrich (Shanghai, P. R. China)
T1 sequence (P80457 whole entry): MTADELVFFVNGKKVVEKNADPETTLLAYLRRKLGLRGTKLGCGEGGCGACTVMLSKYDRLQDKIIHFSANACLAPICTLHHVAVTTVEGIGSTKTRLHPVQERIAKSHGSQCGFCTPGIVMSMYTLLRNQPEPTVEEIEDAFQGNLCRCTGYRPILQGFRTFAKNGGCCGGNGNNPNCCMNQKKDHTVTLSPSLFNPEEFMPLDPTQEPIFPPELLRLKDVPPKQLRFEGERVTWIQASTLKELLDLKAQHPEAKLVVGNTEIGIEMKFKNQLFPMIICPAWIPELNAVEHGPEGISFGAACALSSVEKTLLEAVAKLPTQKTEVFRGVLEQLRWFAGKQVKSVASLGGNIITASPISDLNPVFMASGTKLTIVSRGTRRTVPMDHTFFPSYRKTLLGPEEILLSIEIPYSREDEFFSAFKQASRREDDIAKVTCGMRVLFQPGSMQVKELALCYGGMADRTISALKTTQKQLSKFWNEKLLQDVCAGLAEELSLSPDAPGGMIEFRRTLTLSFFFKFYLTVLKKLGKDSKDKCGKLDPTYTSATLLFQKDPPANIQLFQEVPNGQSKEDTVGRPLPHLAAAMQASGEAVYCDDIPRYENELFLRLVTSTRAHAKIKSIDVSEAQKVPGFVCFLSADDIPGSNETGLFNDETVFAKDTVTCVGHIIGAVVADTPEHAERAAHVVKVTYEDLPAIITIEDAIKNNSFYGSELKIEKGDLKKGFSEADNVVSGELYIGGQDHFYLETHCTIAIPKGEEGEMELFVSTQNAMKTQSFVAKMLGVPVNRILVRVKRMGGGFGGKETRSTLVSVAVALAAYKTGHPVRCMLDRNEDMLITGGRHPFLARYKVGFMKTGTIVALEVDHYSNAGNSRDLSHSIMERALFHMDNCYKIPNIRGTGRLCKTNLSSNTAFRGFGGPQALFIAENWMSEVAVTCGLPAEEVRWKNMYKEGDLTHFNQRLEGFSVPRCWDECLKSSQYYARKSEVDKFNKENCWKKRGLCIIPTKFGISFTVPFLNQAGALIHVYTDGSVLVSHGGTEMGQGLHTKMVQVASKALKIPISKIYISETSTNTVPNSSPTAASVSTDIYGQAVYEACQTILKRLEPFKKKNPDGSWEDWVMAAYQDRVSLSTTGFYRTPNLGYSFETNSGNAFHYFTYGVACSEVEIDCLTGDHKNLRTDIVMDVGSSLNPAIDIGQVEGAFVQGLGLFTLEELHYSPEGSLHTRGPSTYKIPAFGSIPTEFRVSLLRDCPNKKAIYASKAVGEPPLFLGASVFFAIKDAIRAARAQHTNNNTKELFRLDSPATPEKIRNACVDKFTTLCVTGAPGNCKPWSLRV

Xanthine oxidase (XO) [2] = target: T1, Xanthine oxidase (XO); assay: XO inhibitory activity of phenolic compounds (absorbance at 292 nm); assay type: biochemical; conditions: XO 0.1 U/ml, 37°C, 15 min preincubation; mean ± SD

SMILES | Inhibition type (Xanthine oxidase (XO) [1]) | IC50 (Xanthine oxidase (XO) [2]) [µM] | further results
Oc1ncnc2[nH]ncc12 [Allopurinol, allopurinol, reference compound] | – | – | IC50 (XO; ref Wang et al. ([28])): 6.96 µM
O=c1c(O)c(-c2ccc(O)c(O)c2)oc2cc(O)cc(O)c12 [C1, quercetin] | Mixed | – | –
C[C@@H]1O[C@@H](Oc2c(-c3ccc(O)c(O)c3)oc3cc(O)cc(O)c3c2=O)[C@H](O)[C@H](O)[C@H]1O [C2, quercetin-3-rhamnoside] | Competitive | 12.1 ± 0.65 | –
O=C(/C=C/c1ccc(O)c(O)c1)O[C@H]1[C@H](O)C[C@](O)(C(=O)O)C[C@H]1O [C6, 4-O-caffeoylquinic acid] | Competitive | 70.2 ± 2.25 | –
O=C(/C=C/c1ccc(O)c(O)c1)O[C@@H]1C[C@](O)(C(=O)O)C[C@@H](O)[C@H]1O [C7, 3-O-caffeoylquinic acid] | Competitive | 80.9 ± 3.06 | –
O=C(O)/C=C/c1ccc(O)c(O)c1 [C8, caffeic acid] | – | 95.6 ± 3.28 | XO inhibition (XO; at 125 μM concentration, ref Song et al. ([29])): 5.74 ± 2.64%; IC50 (XO; ref Chan et al. ([31])): > 50 µM; IC50 (XO; ref Nguyen et al. ([33])): 85.3 µM; IC50 (XO; ref Wang et al. ([28])): 53.5 µM; IC50 (XO; ref Wang et al. ([30])): 65.6 ± 2.71 µM

Continued, in another order:

Inhibition type (Xanthine oxidase (XO) [1]) | IC50 (Xanthine oxidase (XO) [2]) [µM] | SMILES | further results
Mixed | 26.7 ± 1.2 | O=C(/C=C/c1ccc(O)c(O)c1)O[C@@H]1[C@H](O)C[C@@](O)(C(=O)O)C[C@H]1OC(=O)/C=C/c1ccc(O)c(O)c1 [C3, 4,5-O-dicaffeoylquinic acid] | –
Competitive | 28.9 ± 1.02 | O=C(/C=C/c1ccc(O)c(O)c1)O[C@@H]1CC(O)(C(=O)O)C[C@@H](OC(=O)/C=C/c2ccc(O)c(O)c2)C1O (some centres unmarked) [C4, 3,5-O-dicaffeoylquinic acid] | –
Competitive | 44.6 ± 1.65 | O=C(/C=C/c1ccc(O)c(O)c1)O[C@H]1[C@H](O)C[C@](O)(C(=O)O)C[C@H]1OC(=O)/C=C/c1ccc(O)c(O)c1 [C5, 3,4-O-di-caffeoylquinic acid] | –
